Laboratory results reported in article PMC12785511, “Integrative Profiling for BBB Permeability Using Capillary Electrochromatography, Experimental Physicochemical Parameters, and Ensemble Machine Learning” (International Journal of Molecular Sciences, 2025).

Key:
[1] = open-tubular capillary electrochromatography (CEC), permeability k′ parameter; type: in vitro ADME; conditions: pH 7.4 HEPES buffer 40 mM, migration times in coated and uncoated capillary, mean ± SD of three independent experiments
[2] = Sirius T3 automated potentiometric titrations with n-octanol, log P / log D; conditions: for logP / logD: n-octanol/water
[3] = experimental in vivo measurements from rats, data retrieved from literature; cited from earlier work
[4] = Sirius T3 automated potentiometric (pH-metric) titrations, pKa; conditions: ionic strength adjusted (ISA) water ([…] KCl)
[5] = pKa ± SD, […] ISA water or Yasuda–Shedlovsky extrapolation from methanol cosolvent, value used for regression

| SMILES | k′ ± SD (CEC) [1] | logP [2] | logD ([2]; pH 7.4) | Log BB [3] | pKa [4, 5] | other results |
| --- | --- | --- | --- | --- | --- | --- |
| CC(=O)Oc1ccccc1C(=O)O [acetylsalicylic acid] | 0.03441 ± 0.00987 | 1.31 ± 0.01 | -2.73 | −1.30 | – | – |
| CN(C)CCC=C1c2ccccc2CCc2ccccc21 [amitriptyline] | 0.00004 ± 0.00001 | 4.68 ± 0.02 | 2.84 | 1.30 | 9.23 ± 0.08 | – |
| CC(C)NCC(O)COc1ccc(CC(N)=O)cc1 (stereo not drawn) [atenolol] | 0.00183 ± 0.00051 | – | – | – | – | – |
| CN1[C@@H]2CC[C@H]1C[C@@H](OC(=O)C(CO)c1ccccc1)C2 (stereo partly drawn) [atropine] | 0.0044 ± 0.00309 | – | – | – | – | – |
| CNCCc1ccccn1 [betahistine] | 0.03582 ± 0.00587 | 0.49 ± 0.01 | -1.95 | −0.30 | 9.84 | – |
| O=C(CCCN1CCC(O)(c2ccc(Br)cc2)CC1)c1ccc(F)cc1 [bromperidol] | −0.00795 ± 0.00034 | 3.87 ± 0.05 | 2.81 | 1.38 | 8.45 ± 0.1 | – |
| O=C1CC2(CCCC2)CC(=O)N1CCCCN1CCN(c2ncccn2)CC1 [buspirone] | – | – | – | – | 7.62 | – |
| CN(C)CCCN1c2ccccc2Sc2ccc(Cl)cc21 [chlorpromazine] | – | 5.1 ± 0.03 | 3.43 | – | 9.07 ± 0.01 | – |
| CN(C)CCCC1(c2ccc(F)cc2)OCc2cc(C#N)ccc21 (stereo not drawn) [citalopram] | 0.00405 ± 0.00229 | – | – | 0.48 | – | – |
| Clc1cccc(Cl)c1N=C1NCCN1 [clonidine] | 0.00321 ± 0.00046 | – | – | 0.11 | – | pKa [4]: 8.12 ± 0.01 |
| CN1CCN(C2=Nc3cc(Cl)ccc3Nc3ccccc32)CC1 [clozapine] | 0.00693 ± 0.00245 | 3.92 ± 0.1 | 3.52 | 0.60 | – | – |
| CNCCCN1c2ccccc2CCc2ccccc21 [desipramine] | −0.01523 ± 0.00343 | – | – | 1.20 | – | – |
| O=C(O)Cc1ccccc1Nc1c(Cl)cccc1Cl [diclofenac] | 0.00802 ± 0.0032 | 4.33 ± 0.01 | 1.26 | −1.70 | – | – |
| OCCN1CCN(CCCN2c3ccccc3Sc3ccc(C(F)(F)F)cc32)CC1 [fluphenazine] | 0.111 ± 0.00192 | 5.12 ± 0.06 | 4.58 | 1.51 | 7.79 ± 0.07 | – |
| O=C(CCCN1CCC(O)(c2ccc(Cl)cc2)CC1)c1ccc(F)cc1 [haloperidol] | −0.00906 ± 0.00138 | 4.37 ± 0.08 | 3.18 | – | 8.66 ± 0.08 | – |
| OCCOCCN1CCN(C(c2ccccc2)c2ccc(Cl)cc2)CC1 (stereo not drawn) [hydroxyzine] | −0.00058 ± 0.00031 | 3.73 ± 0.03 | 3.34 | 0.90 | 7.66 ± 0.04 | – |
| CC(C)Cc1ccc(C(C)C(=O)O)cc1 (stereo not drawn) [ibuprofen] | −0.0369 ± 0.00011 | 3.8 | 1.07 | – | – | – |
| CN(C)CCCN1c2ccccc2CCc2ccccc21 [imipramine] | – | – | – | 1.30 | – | – |
| COc1ccc2c(c1)c(CC(=O)O)c(C)n2C(=O)c1ccc(Cl)cc1 [indomethacin] | 0.01869 ± 0.00624 | 6.31 ± 0.12 | 3.92 | −1.26 | – | – |
| O=C(c1ccccc1)c1ccc2n1CCC2C(=O)O (stereo not drawn) [ketorolac] | 0.02127 ± 0.00131 | 2.9 ± 0.04 | -0.05 | −2.00 | 3.64 ± 0.06 | – |

| SMILES | k′ ± SD (CEC) [1] | logP [2] | logD ([2]; pH 7.4) | Log BB [3] | pKa [4, 5] | other results |
| --- | --- | --- | --- | --- | --- | --- |
| C[C@H]1COc2c(N3CCN(C)CC3)c(F)cc3c(=O)c(C(=O)O)cn1c23 [levofloxacin] | – | 0.82 ± 0.01 | 0.77 | −0.70 | – | – |
| COc1ccc(CN(CCN(C)C)c2ccccn2)cc1 [mepyramine] | – | 2.73 ± 0.02 | 1.48 | – | 8.71 ± 0.05 | – |
| CCN(CC)CCNC(=O)c1cc(Cl)c(N)cc1OC [metoclopramide] | −0.00563 ± 0.00136 | – | – | 0.08 | – | – |
| CN1CCN2c3ccccc3Cc3ccccc3C2C1 (stereo not drawn) [mianserin] | −0.02148 ± 0.00155 | 3.74 ± 0.01 | 3.5 | 0.99 | 7.25 ± 0.03 | – |
| COc1ccc2cc([C@H](C)C(=O)O)ccc2c1 [naproxen] | 0.0105 ± 0.0046 | – | – | −1.70 | – | – |
| CNCCC=C1c2ccccc2CCc2ccccc21 [nortriptyline] | −0.01133 ± 0.0021 | 4.29 ± 0.01 | 1.79 | 1.04 | 10.05 ± 0.03 | – |
| Fc1ccc([C@@H]2CCNC[C@H]2COc2ccc3c(c2)OCO3)cc1 [paroxetine] | 0.02144 ± 0.00689 | 3.39 ± 0.04 | – | 0.48 | 9.76 ± 0.08 | – |
| CCCCC1C(=O)N(c2ccccc2)N(c2ccccc2)C1=O [phenylbutazone] | 0.00083 ± 0.00015 | – | – | −0.52 | – | – |
| CC(C)NCC(O)COc1cccc2[nH]ccc12 (stereo not drawn) [pindolol] | – | – | – | 0.30 | – | pKa [4]: 9.62 ± 0.07 |
| CN(C)CCCN1c2ccccc2Sc2ccccc21 [promazine] | −0.01399 ± 0.00228 | 4.54 | 2.55 | 1.23 | 9.39 | logD ([2]; pH 1): 0.83; logD ([2]; pH 1.2): 0.83; logD ([2]; pH 2): 0.83; logD ([2]; pH 3): 0.83; logD ([2]; pH 4): 0.84; logD ([2]; pH 5): 0.91; logD ([2]; pH 6): 1.32; logD ([2]; pH 6.5): 1.71; logD ([2]; pH 7): 2.17; logD ([2]; pH 8): 3.14; logD ([2]; pH 9): 4; logD ([2]; pH 10): 4.45; logD ([2]; pH 11): 4.53; logD ([2]; pH 12): 4.54 |
| CC(C)NCC(O)COc1cccc2ccccc12 (stereo not drawn) [propranolol] | 0.00202 ± 0.00061 | – | – | 0.85 | – | – |
| C=C[C@H]1C[N@@]2CC[C@H]1C[C@@H]2[C@@H](O)c1ccnc2ccc(OC)cc12 [quinidine] | 0.0034 ± 0.0004 | – | – | 0.33 | – | – |
| CNC(=C[N+](=O)[O-])NCCSCc1ccc(CN(C)C)o1 [ranitidine] | −0.00256 ± 0.00041 | 0.34 ± 0.02 | -0.75 | −1.23 | 8.43 ± 0.01 | – |
| Cc1nc2n(c(=O)c1CCN1CCC(c3noc4cc(F)ccc34)CC1)CCCC2 [risperidone] | 0.00698 ± 0.00377 | 3.09 ± 0.03 | – | – | – | – |
| CC(C)(C)NCC(O)c1ccc(O)c(CO)c1 (stereo not drawn) [salbutamol] | −0.0103 ± 0.00502 | 0.3 ± 0.04 | – | −1.03 | 9.6 ± 0.01 | Log D7.4 ([2]; pH 7.4, calculated based on the experimentally obtained pKa and log P data): −1.90 |
| O=C(O)c1ccccc1O [salicylic acid] | 0.02255 ± 0.00676 | 2.31 ± 0.01 | -0.98 | – | – | – |
| CSc1ccc2c(c1)N(CCC1CCCCN1C)c1ccccc1S2 (stereo not drawn) [thioridazine] | – | 5.38 ± 0.03 | 3.54 | 0.24 | 9.25 ± 0.01 | – |
| O=c1n(CCCN2CCN(c3cccc(Cl)c3)CC2)nc2ccccn12 [trazodone] | −0.0108 ± 0.00292 | 2.98 | 2.88 | 0.30 | 6.83 ± 0.04 | – |
| CN1CCN(CCCN2c3ccccc3Sc3ccc(C(F)(F)F)cc32)CC1 [trifluoperazine] | 0.2028 ± 0.00151 | 6.14 ± 0.01 | 5.53 | 1.44 | – | – |
| Cc1cn([C@H]2C[C@H](N=[N+]=[N-])[C@@H](CO)O2)c(=O)[nH]c1=O [zidovudine] | 0.00428 ± 0.00056 | 0.09 ± 0.01 | 0.09 | – | 9.51 | – |
